Assay results reported in patent publication US20240374579A1, “BICYCLIC PGDH INHIBITORS AND METHODS OF MAKING AND USING” (EPIRIUM BIO INC., priority 2021, published 2024).

Key:
15-PGDH = biological target: T1, 15-PGDH (Homo sapiens, UniProt P15428); test: A549 cell based assay: PGE2 in supernatant (HTRF), fold induction over IL-1β; settings: A549 cells; for fold induction at 0.001 µM: compound 0.001 μM plus IL-1β versus IL-1β only, read-out: PGE2-HTRF over IL1-β: Fold induction at 0.001 μM; for fold induction at 0.01 µM: compound 0.01 μM plus IL-1β versus IL-1β only, read-out: PGE2-HTRF over IL1-β: Fold induction at 0.01 μM; for fold induction at 0.1 µM: compound 0.1 μM plus IL-1β versus IL-1β only, read-out: PGE2-HTRF over IL1-β: Fold induction at 0.1 μM; for fold induction at 1 µM: compound 1 μM plus IL-1β versus IL-1β only, read-out: PGE2-HTRF over IL1-β: Fold induction at 1 μM
T1 construct: endogenous in cells; host or cells: A549 human lung adenocarcinoma cells
T1 sequence (P15428 1-266): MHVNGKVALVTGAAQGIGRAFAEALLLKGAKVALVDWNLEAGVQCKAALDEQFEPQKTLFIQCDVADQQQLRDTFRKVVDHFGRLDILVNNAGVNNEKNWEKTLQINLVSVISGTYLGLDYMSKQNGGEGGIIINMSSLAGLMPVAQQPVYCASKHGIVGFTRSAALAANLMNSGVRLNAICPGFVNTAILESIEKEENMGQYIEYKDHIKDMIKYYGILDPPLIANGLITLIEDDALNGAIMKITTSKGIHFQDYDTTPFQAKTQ
Description: Cell Based Assay: 15-PGDH is highly expressed in resting human lung adenocarcinoma cells (A549) (Tong et al., 2006), and this cell line was used to assess 15-PGDH inhibition by MF-300Na in vitro.
In this assay, A549 cells are treated with interleukin (IL) 1β, which induces the expression of cycloxygenase-2 and the synthesis of PGE2 (Tong et al., 2006). In the studies evaluating test articles, thirty thousand A549 cells were seeded in 100 μL F12K completed media and incubated for 24 hours at 37° C. with 5% CO2 before being serum-starved for 24 hours. On the day of the experiment, buffer was changed to complete medium, and cells were incubated for 30 minutes with compounds prior to the addition of IL-1β (final concentration of 0.1-0.25 ng/mL) overnight at 37° C. with 5% CO2. Each concentration was run in triplicate. […] The PGE2 in the supernatant was detected and quantified using a Cisbio HTRF technology (Homogeneous Time-Resolved Fluorescence) kit (62P2APEG-62P2APEH) according to the manufacturer's recommendations, quantifying the fold induction of PGE2 of cells treated with IL-1b plus test article, versus treatment with IL-1b only.

15-PGDH/HPGD = biological target: T2, 15-PGDH/HPGD (Homo sapiens, UniProt P15428); test: hPGDH inhibitor screening biochemical assay; settings: 10 nM enzyme, 15 μM PGE2, 0.25 mM NAD, fluorescence ex/em 340/485 nm
T2 construct: purchased R&D System 5660-DH
T2 sequence (P15428 1-266): T1 sequence (P15428 1-266)
Description: A hydroxyprostaglandin dehydrogenase inhibition screening biochemical assay can be performed to assess the synthesized inhibitors provided herein. Provided herein is an exemplary biochemical assay for hPGDH inhibitor screening.
The in vitro biochemical assay can be performed in white, 384 plates in total 20 μl reaction volume consisting of 10 nM of 15-PGDH/HPGD (R&D System #5660-DH), 15 μM Prostaglandin E2 (Sigma, Cat #P5640-10MG) and 0.25 mM β-Nicotinamide adenine dinucleotide sodium salt (Sigma, Cat #N0632-5G) made in reaction buffer (50 mM Tris-HCl, pH 7.5, 0.01% Tween 20) at 10-point dose response curve for test/tool compounds. Briefly, 5 μl (4×) of compounds solution and 5 μl (final concentration, 10 nM) of enzyme solution is added to white 384 well plates and incubated for 10 mins at 37° C. 5 μl (4×) of Prostaglandin E2 and 5 μl (4×) of β-Nicotinamide adenine dinucleotide sodium salt is added to the wells and incubated for 10 mins at room temperature. Fluorescence is recorded at ex/em=340 nm/485 nm. The percentage ([…]) inhibition of enzyme activity was determined relative to positive control (1% DMSO) and IC50 was calculated using GraphPad prism software (four parameter-variable slope equation).

fold induction at 0.001 µM (15-PGDH)	fold induction at 0.01 µM (15-PGDH)	fold induction at 0.1 µM (15-PGDH)	fold induction at 1 µM (15-PGDH)	IC50 (15-PGDH/HPGD) [nM]	Structure (SMILES)
1.16	1.68	2.5	3.79		CCOc1ccc(-n2nnc3cc(C(=O)N4CCC[C@H](C)C4)cnc32)cc1 [Compound C-30]
0.91	3.09	4.74	4.32		O=C(c1cnc2c(cnn2-c2ccc(-c3nnc[nH]3)cc2)c1)N1CCCC(F)(F)C1 [Compound C-59]
4.07	4.94	4.94	4.86	< 100	C[C@H]1CCCN(C(=O)c2cnc3c(cnn3-c3ccc(N4CCNC4=O)nc3)c2)C1 [Compound C-57]
				100 to 1000	CCO[C@H]1CCN(C(=O)c2cnc3c(cnn3-c3ccc(-c4nnc[nH]4)cc3)c2)C1 [Compound C-43]
				< 100	COCC(=O)Nc1cncc(-n2ncc3cc([S+]([O-])C4CCC(F)(F)CC4)cnc32)c1 (stereo not shown) [Compound C-124]
				100 to 1000	O=C(c1cnc2c(cnn2-c2cc(Cl)cc(-c3nnc[nH]3)c2)c1)N1CC[S+]([O-])CC1 [Compound C-67]
				< 100	O=C(c1cnc2c(cnn2-c2ccc(-c3nnc[nH]3)cc2F)c1)N1CCC(F)(F)CC1 [Compound C-73]

The next lines start with the compound.

Structure (SMILES)	fold induction at 0.001 µM (15-PGDH)	fold induction at 0.01 µM (15-PGDH)	fold induction at 0.1 µM (15-PGDH)	fold induction at 1 µM (15-PGDH)	IC50 (15-PGDH/HPGD) [nM]
C[C@H]1CCCN(C(=O)c2cnc3c(cnn3-c3ccc4nc(N)nn4c3)c2)C1 [Compound C-27]	1.04	2.06	3.36	4.68	< 100
Cc1nc(-c2ccc(-n3nnc4cc(C(=O)N5CCC[C@H](C)C5)cnc43)cc2)no1 [Compound C-29]	3.78	4.08	6.4	4.88	
O=C(c1cnc2c(cnn2-c2ccc(-c3ncn[nH]3)cc2)c1)N1CCC(F)(F)CC1 [Compound C-6]	0.98	2.14	5.31	4.88	< 100
C[C@H]1CCCN(C(=O)c2cnc3c(cnn3-c3ccc(N4CCOCC4)nc3)c2)C1 [Compound C-26]	1.05	1.31	1.8	3.45	
C[C@H]1CCCN(C(=O)c2cnc3c(c2)nnn3-c2ccc(-c3nnc[nH]3)cc2)C1 [Compound C-19]	1.11	1.81	3.61	4.5	< 100
C[C@H]1CCCN(C(=O)c2cnc3c(cnn3-c3ccc(N4CCOC4=O)nc3)c2)C1 [Compound C-25]	2.08	3.56	4.84	6.39	< 100
O=C(O)c1ccc(-n2ncc3cc(C(=O)N4CCC(F)(F)CC4)cnc32)cc1 [Compound C-2, 4-(5-(4,4-difluoropiperidine-1-carbonyl)-1H-pyrazolo[3,4-b]pyridin-1-yl) benzoic acid]					< 100
O=C(c1cnc2c(c1)nnn2-c1ccc(-c2ncn[nH]2)nc1)N1CCC(F)(F)CC1 [Compound C-5, (3-(6-(1H-1,2,4-triazol-5-yl)pyridin-3-yl)-3H-[1,2,3]triazolo[4,5-b]pyridin-6-yl) (4,4-difluoropiperidin-1-yl)methanone]					< 100
O=C(c1cnc2c(cnn2-c2cncc(N3CCOCC3)c2)c1)N1CCC(F)(F)CC1 [Compound C-28]	1.04	0.76	2.06	3.61	
CN(C)c1nc2ccc(-n3ncc4cc(C(=O)N5CCC(F)(F)CC5)cnc43)cn2n1 [Compound C-24]					≥ 1000
